Legend:
wild oat = experiment: Test Example 5: herbicidal effect by foliage application, plastic box (Table 20, symbol I); assay type: in vivo, wild oat (Avena fatua); settings: foliage application
Summary of the method: (§1)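 Plants sown in sterilized diluvial soil and grown 14 days in a greenhouse at 25° C to 30° C, then sprayed on the foliage with the compound's emulsion diluted in water to a predetermined herbicide amount. Injury to weeds and crops scored three weeks after application on a visual rating scale.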

false cleavers = experiment: Test Example 5: herbicidal effect by foliage application, plastic box (Table 20, symbol Q); assay type: in vivo, false cleavers (Galium spurium); settings: foliage application
Summary of the method: as §1

barnyard grass [1] = experiment: Test Example 3: herbicidal effect by foliage application, Wagner pot (Table 18, symbol H); assay type: in vivo, barnyard grass (Echinochloa crus-galli)
Summary of the method: (§2)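 Plants were sown in alluvial soil held under 0.1–0.5 cm standing water and grown 14 days in a greenhouse at 25–30 °C. An emulsifiable formulation, water-diluted to the set dose, was then sprayed onto the foliage, and effects were scored three weeks later using previously defined criteria.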

Italian ryegrass = experiment: Test Example 5: herbicidal effect by foliage application, plastic box (Table 20, symbol K); assay type: in vivo, Italian ryegrass (Lolium multiflorum); settings: foliage application
Summary of the method: as §1

green foxtail = experiment: Test Example 5: herbicidal effect by foliage application, plastic box (Table 20, symbol G); assay type: in vivo, green foxtail (Setaria viridis); settings: foliage application
Summary of the method: as §1

redroot pigweed = experiment: Test Example 5: herbicidal effect by foliage application, plastic box (Table 20, symbol N); assay type: in vivo, redroot pigweed (Amaranthus retroflexus); settings: foliage application
Summary of the method: as §1

Chinese sprangletop = experiment: Test Example 3: herbicidal effect by foliage application, Wagner pot (Table 18, symbol D); assay type: in vivo, chinese sprangletop (Leptochloa chinensis)
Summary of the method: as §2

windgrass = experiment: Test Example 5: herbicidal effect by foliage application, plastic box (Table 20, symbol L); assay type: in vivo, windgrass (Apera spica-venti); settings: foliage application
Summary of the method: as §1

southern crabgrass = experiment: Test Example 5: herbicidal effect by foliage application, plastic box (Table 20, symbol F); assay type: in vivo, southern crabgrass (Digitaria ciliaris); settings: foliage application
Summary of the method: as §1

velvetleaf = experiment: Test Example 5: herbicidal effect by foliage application, plastic box (Table 20, symbol M); assay type: in vivo, velvetleaf (Abutilon theophrasti); settings: foliage application
Summary of the method: as §1

lambsquarters = experiment: Test Example 5: herbicidal effect by foliage application, plastic box (Table 20, symbol O); assay type: in vivo, lambsquarters (Chenopodium album); settings: foliage application
Summary of the method: as §1

barnyard grass [2] = experiment: Test Example 5: herbicidal effect by foliage application, plastic box (Table 20, symbol H); assay type: in vivo, barnyard grass (Echinochloa crus-galli); settings: foliage application
Summary of the method: as §1

chickweed = experiment: Test Example 5: herbicidal effect by foliage application, plastic box (Table 20, symbol P); assay type: in vivo, common chickweed (Stellaria media); settings: foliage application
Summary of the method: as §1

blackgrass = experiment: Test Example 5: herbicidal effect by foliage application, plastic box (Table 20, symbol J); assay type: in vivo, blackgrass (Alopecurus myosuroides); settings: foliage application
Summary of the method: as §1

rice flat sedge = experiment: Test Example 3: herbicidal effect by foliage application, Wagner pot (Table 18, symbol E); assay type: in vivo, rice flat sedge (Cyperus iria)
Summary of the method: as §2

persian speedwell = experiment: Test Example 5: herbicidal effect by foliage application, plastic box (Table 20, symbol R); assay type: in vivo, Persian speedwell (Veronica persica); settings: foliage application
Summary of the method: as §1

[3] = 320 g/ha, three weeks after application
[4] = AAH 320 g/ha, three weeks after application
[5] = AAH 485 g/ha, three weeks after application
[6] = 320 g/ha, evaluated three weeks after application
[7] = amount of applied herbicide 320 g/ha

Cc1nn(C)c(=O)c(-c2c(-c3ccoc3)sc3ccccc23)c1O [1-081]
herbicidal effect grade, I: wild oat (wild oat; [3]): 0 (Herbicidal rate of 5% or less (almost no effect))
herbicidal effect grade, Q: false cleavers (false cleavers; [3]): 2 (Herbicidal rate of 20% or more and less than 40%)
herbicidal effect on H (barnyard grass), rating 0-5 (barnyard grass [1]; 320 g/ha): 3 (Herbicidal rate of 40% or more and less than 70%)
herbicidal effect grade, K: Italian ryegrass (Italian ryegrass; [3]): 3 (Herbicidal rate of 40% or more and less than 70%)
herbicidal effect grade, G: green foxtail (green foxtail; [3]): 0 (Herbicidal rate of 5% or less (almost no effect))
herbicidal effect grade, N: redroot pigweed (redroot pigweed; [3]): 2 (Herbicidal rate of 20% or more and less than 40%)
herbicidal effect on D (Chinese sprangletop), rating 0-5 (Chinese sprangletop; 320 g/ha): 0 (Herbicidal rate of 5% or less (almost no effect))
herbicidal effect grade, L: windgrass (windgrass; [3]): 0 (Herbicidal rate of 5% or less (almost no effect))
herbicidal effect grade, F: southern crabgrass (southern crabgrass; [3]): 0 (Herbicidal rate of 5% or less (almost no effect))
herbicidal effect grade, M: velvetleaf (velvetleaf; [3]): 3 (Herbicidal rate of 40% or more and less than 70%)
herbicidal effect grade, O: lambsquarters (lambsquarters; [3]): 0 (Herbicidal rate of 5% or less (almost no effect))
herbicidal effect grade, H: barnyard grass (barnyard grass [2]; [3]): 0 (Herbicidal rate of 5% or less (almost no effect))
herbicidal effect grade, P: chickweed (chickweed; [3]): 3 (Herbicidal rate of 40% or more and less than 70%)
herbicidal effect grade, J: blackgrass (blackgrass; [3]): 0 (Herbicidal rate of 5% or less (almost no effect))
herbicidal effect on E (rice flat sedge), rating 0-5 (rice flat sedge; 320 g/ha): 4 (Herbicidal rate of 70% or more and less than 90%)
herbicidal effect grade, R: persian speedwell (persian speedwell; [3]): 4 (Herbicidal rate of 70% or more and less than 90%)

Cc1nn(C)c(=O)c(-c2c(-c3ccc4c(c3)OCCO4)sc3ccccc23)c1OS(C)(=O)=O [1-094]
I: wild oat, herbicidal effect (wild oat; [4]): 0 (Herbicidal rate of 5% or less (almost no effect))
Q: false cleavers, herbicidal effect (false cleavers; [4]): 0 (Herbicidal rate of 5% or less (almost no effect))
herbicidal effect on H (barnyard grass), rating 0-5 (barnyard grass [1]; 320 g/ha): 3 (Herbicidal rate of 40% or more and less than 70%)
K: Italian ryegrass, herbicidal effect (Italian ryegrass; [4]): 0 (Herbicidal rate of 5% or less (almost no effect))
G: green foxtail, herbicidal effect (green foxtail; [4]): 0 (Herbicidal rate of 5% or less (almost no effect))
N: redroot pigweed, herbicidal effect (redroot pigweed; [4]): 1 (Herbicidal rate of 5% or more and less than 20%)
herbicidal effect on D (Chinese sprangletop), rating 0-5 (Chinese sprangletop; 320 g/ha): 0 (Herbicidal rate of 5% or less (almost no effect))
L: windgrass, herbicidal effect (windgrass; [4]): 0 (Herbicidal rate of 5% or less (almost no effect))
F: southern crabgrass, herbicidal effect (southern crabgrass; [4]): 0 (Herbicidal rate of 5% or less (almost no effect))
M: velvetleaf, herbicidal effect (velvetleaf; [4]): 3 (Herbicidal rate of 40% or more and less than 70%)
O: lambsquarters, herbicidal effect (lambsquarters; [4]): 1 (Herbicidal rate of 5% or more and less than 20%)
H: barnyard grass, herbicidal effect (barnyard grass [2]; [4]): 0 (Herbicidal rate of 5% or less (almost no effect))
P: chickweed, herbicidal effect (chickweed; [4]): 0 (Herbicidal rate of 5% or less (almost no effect))
J: blackgrass, herbicidal effect (blackgrass; [4]): 0 (Herbicidal rate of 5% or less (almost no effect))
herbicidal effect on E (rice flat sedge), rating 0-5 (rice flat sedge; 320 g/ha): 3 (Herbicidal rate of 40% or more and less than 70%)
R: persian speedwell, herbicidal effect (persian speedwell; [4]): 4 (Herbicidal rate of 70% or more and less than 90%)

CCCC(=O)Oc1c(C)nn(C)c(=O)c1-c1c(-c2cc3c(cc2Cl)OCCO3)sc2ccccc12 [1-096]
I: wild oat, herbicidal effect (wild oat; [5]): 0 (Herbicidal rate of 5% or less (almost no effect))
Q: false cleavers, herbicidal effect (false cleavers; [5]): 1 (Herbicidal rate of 5% or more and less than 20%)
herbicidal effect on H (barnyard grass), rating 0-5 (barnyard grass [1]; 485 g/ha): 5 (Herbicidal rate of 90% or more (almost completely withered))
K: Italian ryegrass, herbicidal effect (Italian ryegrass; [5]): 0 (Herbicidal rate of 5% or less (almost no effect))
G: green foxtail, herbicidal effect (green foxtail; [5]): 2 (Herbicidal rate of 20% or more and less than 40%)
N: redroot pigweed, herbicidal effect (redroot pigweed; [5]): 4 (Herbicidal rate of 70% or more and less than 90%)
herbicidal effect on D (Chinese sprangletop), rating 0-5 (Chinese sprangletop; 485 g/ha): 2 (Herbicidal rate of 20% or more and less than 40%)
L: windgrass, herbicidal effect (windgrass; [5]): 0 (Herbicidal rate of 5% or less (almost no effect))
F: southern crabgrass, herbicidal effect (southern crabgrass; [5]): 2 (Herbicidal rate of 20% or more and less than 40%)
M: velvetleaf, herbicidal effect (velvetleaf; [5]): 1 (Herbicidal rate of 5% or more and less than 20%)
O: lambsquarters, herbicidal effect (lambsquarters; [5]): 4 (Herbicidal rate of 70% or more and less than 90%)
H: barnyard grass, herbicidal effect (barnyard grass [2]; [5]): 3 (Herbicidal rate of 40% or more and less than 70%)
P: chickweed, herbicidal effect (chickweed; [5]): 3 (Herbicidal rate of 40% or more and less than 70%)
J: blackgrass, herbicidal effect (blackgrass; [5]): 0 (Herbicidal rate of 5% or less (almost no effect))
herbicidal effect on E (rice flat sedge), rating 0-5 (rice flat sedge; 485 g/ha): 0 (Herbicidal rate of 5% or less (almost no effect))
R: persian speedwell, herbicidal effect (persian speedwell; [5]): 5 (Herbicidal rate of 90% or more (almost completely withered))

CCCC(=O)Oc1c(C)nn(C)c(=O)c1-c1c(-c2ccc(Oc3ccccc3)cc2)sc2ccccc12 [1-150]
I: wild oat, herbicidal effect (wild oat; [4]): 0 (Herbicidal rate of 5% or less (almost no effect))
Q: false cleavers, herbicidal effect (false cleavers; [4]): 5 (Herbicidal rate of 90% or more (almost completely withered))
herbicidal effect on H (barnyard grass), rating 0-5 (barnyard grass [1]; 320 g/ha): 2 (Herbicidal rate of 20% or more and less than 40%)
K: Italian ryegrass, herbicidal effect (Italian ryegrass; [4]): 0 (Herbicidal rate of 5% or less (almost no effect))
G: green foxtail, herbicidal effect (green foxtail; [4]): 0 (Herbicidal rate of 5% or less (almost no effect))
N: redroot pigweed, herbicidal effect (redroot pigweed; [4]): 4 (Herbicidal rate of 70% or more and less than 90%)
herbicidal effect on D (Chinese sprangletop), rating 0-5 (Chinese sprangletop; 320 g/ha): 3 (Herbicidal rate of 40% or more and less than 70%)
L: windgrass, herbicidal effect (windgrass; [4]): 0 (Herbicidal rate of 5% or less (almost no effect))
F: southern crabgrass, herbicidal effect (southern crabgrass; [4]): 0 (Herbicidal rate of 5% or less (almost no effect))
M: velvetleaf, herbicidal effect (velvetleaf; [4]): 3 (Herbicidal rate of 40% or more and less than 70%)
O: lambsquarters, herbicidal effect (lambsquarters; [4]): 2 (Herbicidal rate of 20% or more and less than 40%)
H: barnyard grass, herbicidal effect (barnyard grass [2]; [4]): 0 (Herbicidal rate of 5% or less (almost no effect))
P: chickweed, herbicidal effect (chickweed; [4]): 5 (Herbicidal rate of 90% or more (almost completely withered))
J: blackgrass, herbicidal effect (blackgrass; [4]): 0 (Herbicidal rate of 5% or less (almost no effect))
herbicidal effect on E (rice flat sedge), rating 0-5 (rice flat sedge; 320 g/ha): 3 (Herbicidal rate of 40% or more and less than 70%)
R: persian speedwell, herbicidal effect (persian speedwell; [4]): 5 (Herbicidal rate of 90% or more (almost completely withered))

Cc1ccc2sc(-c3ccc4c(c3)OCCO4)c(-c3c(O)c(C)nn(C)c3=O)c2c1 [2-158]
herbicidal effect on I: wild oat (criteria 0-5) (wild oat; [6]): 0 (Herbicidal rate of 5% or less (almost no effect))
herbicidal effect on Q: false cleavers (criteria 0-5) (false cleavers; [6]): 0 (Herbicidal rate of 5% or less (almost no effect))
herbicidal effect on H: barnyard grass (barnyard grass [1]; [7]): 0 (Herbicidal rate of 5% or less (almost no effect))
herbicidal effect on K: Italian ryegrass (criteria 0-5) (Italian ryegrass; [6]): 0 (Herbicidal rate of 5% or less (almost no effect))
herbicidal effect on G: green foxtail (criteria 0-5) (green foxtail; [6]): 0 (Herbicidal rate of 5% or less (almost no effect))
herbicidal effect on N: redroot pigweed (criteria 0-5) (redroot pigweed; [6]): 0 (Herbicidal rate of 5% or less (almost no effect))
herbicidal effect on D: Chinese sprangletop (Chinese sprangletop; [7]): 1 (Herbicidal rate of 5% or more and less than 20%)
herbicidal effect on L: windgrass (criteria 0-5) (windgrass; [6]): 0 (Herbicidal rate of 5% or less (almost no effect))
herbicidal effect on F: southern crabgrass (criteria 0-5) (southern crabgrass; [6]): 0 (Herbicidal rate of 5% or less (almost no effect))
herbicidal effect on M: velvetleaf (criteria 0-5) (velvetleaf; [6]): 2 (Herbicidal rate of 20% or more and less than 40%)
herbicidal effect on O: lambsquarters (criteria 0-5) (lambsquarters; [6]): 0 (Herbicidal rate of 5% or less (almost no effect))
herbicidal effect on H: barnyard grass (criteria 0-5) (barnyard grass [2]; [6]): 0 (Herbicidal rate of 5% or less (almost no effect))
herbicidal effect on P: chickweed (criteria 0-5) (chickweed; [6]): 5 (Herbicidal rate of 90% or more (almost completely withered))
herbicidal effect on J: blackgrass (criteria 0-5) (blackgrass; [6]): 0 (Herbicidal rate of 5% or less (almost no effect))
herbicidal effect on E: rice flat sedge (rice flat sedge; [7]): 4 (Herbicidal rate of 70% or more and less than 90%)
herbicidal effect on R: persian speedwell (criteria 0-5) (persian speedwell; [6]): 5 (Herbicidal rate of 90% or more (almost completely withered))
